Values quoted from earlier work, collected in patent US20140186456A1, “Tripartite Bioactive Composition Providing Anti-Oxidant and Anti-Inflammatory Effects with Immune System and Stem Cell Production Enhancement” (priority 2011, published 2014).

System: organisms and animal species

## Oc1ccc(/C=C/c2cc(O)cc(O)c2)cc1 [resveratrol, 3,5,4′-trihydroxy-trans-stilbene]
  increase of lifespan: 20-40%
